From patent US10611765B2, “Pyrrolopyrimidine derivatives as Mps1/TTK kinase inhibitors” (Ohio State Innovation Foundation, priority 2014, dated 2020)
Where two headings read alike, the source gives them in different places.

Assays:
BT-20 = experiment: MTS anti-proliferative assay, BT-20; format: cell-based; conditions: Homo sapiens, 168 h, BT-20, TNBC, basal A, treatment for 7 days
Protocol: (§1) The anti-proliferative effects and IC50 values of the compounds in the BC cell line panel were determined by MTS assay.
(§2) The cells, except Sk-Br-3, AU565 and BT-474 were maintained in a mixture of Dulbecco's modified Eagle's medium and Ham's F12 medium (1:1) (DMEM/F12) without phenol red supplemented with 5% fetal bovine serum (FBS) and 1× antibiotic-antimycotic (100 U/mL penicillin G sodium, 100 μg/mL streptomycin sulfate and 0.25 μg/mL amphotericin B) and were plated separately in flasks in a humidified incubator (5% CO2: 95% air, 37° C.). The media used for Sk-Br-3, AU565 and BT-474 cell lines was described in (1) Brueggemeier et al., J. Steroid Biochem. Mol. Biol., 2005; 95:129-136; and (2) Diaz-Cruz et al., J. Clin. Endocrinol. Metab., 2005; 90:2563-2570. The media were changed every 2-days. When the cells grew to about 80% confluence, cells were washed twice with calcium- and magnesium-free phosphate-buffered saline (PBS, pH 7.4), and then trypsinized with 0.05% trypsin-5.3 mm EDTA. The trypsinization was stopped by addition of culture medium with 5% FBS. After centrifugation, the dissociated cells were resuspended in the same medium and subcultured into 75-cm^2 culture flasks at a ratio of 1:5 flasks.
(§3) The BC cells were seeded at the density of 1,000 cells per well (100 μL) into 96 well plate in DMEM/F-12 (1:1), supplemented with 5% (v/v) FCS and incubated overnight at 37° C. Test compounds are solubilized in dimethyl sulfoxide (DMSO), diluted in cell culture medium to a range of final assay concentrations of 1 nM to 10 μM, added to cells and incubated for 7 days at 37° C. The medium including the test compound are refreshed at days 3 and 5. The MTS assay are carried out by using the CellTiter 96® AQueous One Solution Cell Proliferation Assay kit following the manufacturer's instruction.

[1] = molecular target: T1, Mps1/TTK kinase (recombinant GST-Mps1) (Homo sapiens, UniProt P33981); experiment: Mps1 in vitro kinase assay with Cetn2 substrate; format: biochemical; conditions: read-out: IC50, in vitro kinase activity of Mps1
T1 sequence (P33981 1-857): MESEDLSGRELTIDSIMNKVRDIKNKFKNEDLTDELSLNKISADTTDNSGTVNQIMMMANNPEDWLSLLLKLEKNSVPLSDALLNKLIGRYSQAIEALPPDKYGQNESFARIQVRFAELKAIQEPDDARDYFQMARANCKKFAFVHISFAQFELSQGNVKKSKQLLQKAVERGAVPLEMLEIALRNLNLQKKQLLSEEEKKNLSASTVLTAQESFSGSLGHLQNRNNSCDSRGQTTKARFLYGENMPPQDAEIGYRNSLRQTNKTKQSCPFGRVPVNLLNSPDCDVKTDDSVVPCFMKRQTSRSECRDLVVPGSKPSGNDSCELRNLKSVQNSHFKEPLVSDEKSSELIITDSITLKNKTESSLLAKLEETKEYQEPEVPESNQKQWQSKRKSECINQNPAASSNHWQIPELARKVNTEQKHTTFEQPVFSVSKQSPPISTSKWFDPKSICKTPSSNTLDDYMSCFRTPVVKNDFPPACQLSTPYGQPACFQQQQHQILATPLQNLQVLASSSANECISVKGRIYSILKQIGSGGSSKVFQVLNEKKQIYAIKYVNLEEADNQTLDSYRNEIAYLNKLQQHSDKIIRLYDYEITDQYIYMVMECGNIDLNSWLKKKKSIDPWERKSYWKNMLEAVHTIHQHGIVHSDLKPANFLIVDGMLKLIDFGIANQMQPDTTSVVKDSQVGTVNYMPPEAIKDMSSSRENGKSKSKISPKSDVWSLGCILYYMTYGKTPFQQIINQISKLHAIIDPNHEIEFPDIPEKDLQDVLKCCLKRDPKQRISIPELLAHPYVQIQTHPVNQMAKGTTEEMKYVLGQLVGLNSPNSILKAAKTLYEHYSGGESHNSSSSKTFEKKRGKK
Protocol: To determine the efficacy of the compounds against Mps1/TTK kinase activity, assays were performed as previously described (11) using recombinant Mps1, Cetn2 (specific substrate), and varying concentration of compound.

T47D = experiment: MTS anti-proliferative assay, T47D; format: cell-based; conditions: Homo sapiens, 168 h, luminal, treatment for 7 days
Protocol: as §1, §2, §3

MDA-MB-231 = experiment: MTS anti-proliferative assay, MDA-MB-231; format: cell-based; conditions: Homo sapiens, 168 h, MDA-MB-231, TNBC, basal B, treatment for 7 days
Protocol: as §1, §2, §3

AU565 = experiment: MTS anti-proliferative assay, AU565; format: cell-based; conditions: Homo sapiens, 168 h, AU565, luminal, treatment for 7 days
Protocol: as §1, §2, §3

Sk-Br-3 = experiment: MTS anti-proliferative assay, Sk-Br-3; format: cell-based; conditions: Homo sapiens, 168 h, Sk-Br-3, luminal, treatment for 7 days
Protocol: as §1, §2, §3

twenty common kinases = experiment: Kinase profiling assays for twenty common kinases; format: biochemical
Protocol: Briefly, the inhibition potency to Mps1 kinase activity was determined by measurement of radioactive phosphotransfer to the specific substrate, Cetn2. The autophosphorylation of Mps1 was also measured using the same method without adding Cetn2 in the kinase assay reaction mixture. […] Mps1 activity was measured using 0.25 ng of recombinant GST-Mps1 protein in 50 mM TrisCl pH 7.5, 0.5 mM DTT, 10 mM MgCl2, 300 μM recombinant Cetn2 and 3 μM ^32P-γ-ATP. […] ATP was added to initiate the kinase assay, incubated at 30° C. for 30 min and five-fold volume of […] was added to quench the reaction. The whole reaction was immobilized on Immobilon-P^SQ PVDF membrane (Millipore) using a dot blotter connected to vacuum line. Each well was washed three times with 300 μL of PBS. The membrane was further washed by soaking in PBS, dried, and exposed overnight to a Phosphor Screen. The image was acquired by the Storm imaging system (Amersham). The density analyses were performed by using Image-J program, and kinetic constants were calculated by GraphPad Prism 5 software. Commercial kinase profiling assays were performed by Reaction Biology Corp., Malvern, Pa.

Cal-51 cells (tumor) = experiment: Tumor progression in athymic nude mice; format: in vivo; conditions: Cal-51 tumors, i.p. injection in DMSO, five-week study
Protocol: Compound 13 in DMSO was administered to the test mice by i.p. injection. Cal-51 cells were injected to induce tumor growth. At the end of the five-week study, the mice were sacrificed, and the tumors were measured, dissected and weighed (FIGS. 6 and 7).

[2] = additional investigations (text to Table 2)

kinases inhibited in profiling of twenty common kinases (twenty common kinases)	SMILES	IC50 (BT-20) [nM]	IC50 [1, 2] [nM]	IC50 ([1]; preliminary investigations) [nM]	IC50 (T47D) [µM]	IC50 (MDA-MB-231) [µM]	IC50 (AU565) [nM]	IC50 (Sk-Br-3) [nM]	tumor progression (Cal-51 cells (tumor))
	COc1cc(N2CCC(O)CC2)ccc1Nc1nc(Nc2ccccc2S(=O)(=O)C(C)C)c2cc[nH]c2n1 [Compound 1, 1-(4-((4-((2-(isopropylsulfonyl)phenyl)amino)-7H-pyrrolo[2,3-d]pyrimidin-2-yl)amino)-3-methoxyphenyl)piperidin-4-ol]	350	809	155	> 10	> 10	> 10000	> 10000	
only two kinases	COc1cc(N2CCOCC2)ccc1Nc1nc(NC2CCCCC2)c2cc[nH]c2n1 [Compound 13, N4-cyclohexyl-N2-(2-methoxy-4-morpholinophenyl)-7H-pyrrolo[2,3-d]pyrimidine-2,4-diamine]	570	356	30	> 10	> 10	900	780	slowed the tumor progression
